# Data: US6914045B2, “Glycopeptide antibiotics” (Wyeth Holdings Corporation, priority 2001, dated 2005)
# Legend:
# Assay in all cases: in vitro antibacterial evaluation, MIC by broth dilution
# Format in all cases: cell-based
# Enterococcus sp. = conditions: broth dilution, 18 hours at 35° C.
# How it was run: (§1)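 Following National Committee for Clinical Laboratory Standards recommendations (M7-A2), susceptibility was measured by dilution in Muller-Hinton II […]. Bacteria were seeded at 5×10^5 CFU/mL against compound concentrations from 64 down to 0.06 μg/mL.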
# Streptococcus sp. = conditions: broth dilution, 18 hours at 35° C.
# How it was run: as §1
# Staphylococcus sp. = conditions: broth dilution, 18 hours at 35° C.; for MIC Staphylococcus aureus (GC 1131): strain GC 1131; for MIC Staphylococcus aureus (ATCC 29213): strain ATCC 29213; for MIC Staphylococcus aureus (GC 3051): strain GC 3051; for MIC Staphylococcus aureus (GC 3053): strain GC 3053; for MIC Staphylococcus aureus (GC 4541): strain GC 4541; for MIC Staphylococcus aureus (GC 4542): strain GC 4542; for MIC Staphylococcus aureus (GC 4544): strain GC 4544; for MIC Staphylococcus aureus (GC 4545): strain GC 4545; for MIC Staphylococcus haemolyticus (GC 4546): strain GC 4546; for MIC Coagulase Negative Staphylococcus (GC 4547): strain GC 4547; for MIC Coagulase Negative Staphylococcus (GC 4548): strain GC 4548; for MIC Coagulase Negative Staphylococcus (GC 4549): strain GC 4549; for MIC Coagulase Negative Staphylococcus (GC 4551): strain GC 4551; for MIC Coagulase Negative Staphylococcus (GC 6257): strain GC 6257
# How it was run: as §1
# Escherichia coli = conditions: for MIC Escherichia coli (ATCC 25922): strain ATCC 25922, 18 hours at 35° C.; for MIC Escherichia coli (GC 4559): strain GC 4559, 18 hours at 35° C.
# How it was run: as §1
# [1] = Enterococcus faecalis (ATCC 29212)
# [2] = Enterococcus faecalis (GC 2242)
# [3] = Enterococcus faecalis (GC 2691)
# [4] = Enterococcus faecalis (GC 3059)
# [5] = Enterococcus faecalis (GC 4552)
# [6] = Enterococcus faecalis (GC 4553)
# [7] = Enterococcus faecalis (GC 4554)
# [8] = Enterococcus faecalis (GC 6189)
# [9] = Streptococcus agalactiae (GC 4564)
# [10] = Streptococcus pneumoniae (ATCC 6301)
# [11] = Streptococcus pneumoniae (GC 1894)
# [12] = Streptococcus pneumoniae (GC 4565)
# [13] = Streptococcus pyogenes (GC 4563)
structure (smiles),measurement,setting,value
"COc1cccc(C2OC3C(OC4C(CO)OC(Oc5ccc(CC6NC(=O)C(C(C)c7ccccc7)NC(=O)CNC(=O)C(CO)NC(=O)C(C(O)C7CNC(=N)N7C7OC(CO)C(O)C(O)C7O)NC(=O)C(C(O)C7CNC(=N)N7)NC6=O)cc5)C(O)C4O)OC(CO)C(O)C3O2)c1 (single isomer, unassigned) [Example 137a, Cyclo[glycyl-β-methylphenylalanyl-O-[4-O-[2,3-O-(3-methoxybenzylidene)hexopyranosyl]-hexopyranosyl]tyrosyl-3-(2-iminoimidazolidin-4-yl)seryl-3-(3-hexopyranosyl-2-iminoimidazolidin-4-yl)serylseryl]]",MIC Enterococcus avium (GC 4558),Enterococcus sp.; Enterococcus avium (GC 4558),64 µg/mL
same,MIC Enterococcus faecalis (ATCC 29212),Enterococcus sp.; [1],>64 µg/mL
same,MIC Enterococcus faecalis (GC 2242),Enterococcus sp.; [2],>64 µg/mL
same,MIC Enterococcus faecalis (GC 2691),Enterococcus sp.; [3],>64 µg/mL
same,MIC Enterococcus faecalis (GC 3059),Enterococcus sp.; [4],>64 µg/mL
same,MIC Enterococcus faecalis (GC 4552),Enterococcus sp.; [5],>64 µg/mL
same,MIC Enterococcus faecalis (GC 4553),Enterococcus sp.; [6],>64 µg/mL
same,MIC Enterococcus faecalis (GC 4554),Enterococcus sp.; [7],>64 µg/mL
same,MIC Enterococcus faecalis (GC 6189),Enterococcus sp.; [8],>64 µg/mL
same,MIC Enterococcus faecium (GC 2243),Enterococcus sp.; Enterococcus faecium (GC 2243),>64 µg/mL
same,MIC Enterococcus faecium (GC 4556),Enterococcus sp.; Enterococcus faecium (GC 4556),>64 µg/mL
same,MIC Enterococcus faecium (GC 4557),Enterococcus sp.; Enterococcus faecium (GC 4557),16 µg/mL
same,MIC Enterococcus faecalis (ATCC 29212),Enterococcus sp.; strain ATCC 29212,>64 µg/mL
same,MIC Enterococcus faecalis (GC 2242),Enterococcus sp.; strain GC 2242,>64 µg/mL
same,MIC Enterococcus faecium (GC 2243),Enterococcus sp.; strain GC 2243,>64 µg/mL
same,MIC Enterococcus faecalis (GC 2691),Enterococcus sp.; strain GC 2691,>64 µg/mL
same,MIC Enterococcus faecalis (GC 3059),Enterococcus sp.; strain GC 3059,>64 µg/mL
same,MIC Enterococcus faecalis (GC 4552),Enterococcus sp.; strain GC 4552,>64 µg/mL
same,MIC Enterococcus faecalis (GC 4553),Enterococcus sp.; strain GC 4553,>64 µg/mL
same,MIC Enterococcus faecalis (GC 4554),Enterococcus sp.; strain GC 4554,>64 µg/mL
same,MIC Enterococcus faecium (GC 4556),Enterococcus sp.; strain GC 4556,>64 µg/mL
same,MIC Enterococcus faecium (GC 4557),Enterococcus sp.; strain GC 4557,16 µg/mL
same,MIC Enterococcus avium (GC 4558),Enterococcus sp.; strain GC 4558,64 µg/mL
same,MIC Enterococcus faecalis (GC 6189),Enterococcus sp.; strain GC 6189,>64 µg/mL
same,MIC Streptococcus agalactiae (GC 4564),Streptococcus sp.; [9],16 µg/mL
same,MIC Streptococcus pneumoniae (ATCC 6301),Streptococcus sp.; [10],8 µg/mL
same,MIC Streptococcus pneumoniae (GC 1894),Streptococcus sp.; [11],4 µg/mL
same,MIC Streptococcus pneumoniae (GC 4565),Streptococcus sp.; [12],16 µg/mL
same,MIC Streptococcus pyogenes (GC 4563),Streptococcus sp.; [13],16 µg/mL
same,MIC Streptococcus pneumoniae (ATCC 6301),Streptococcus sp.; strain ATCC 6301,8 µg/mL
same,MIC Streptococcus pneumoniae (GC 1894),Streptococcus sp.; strain GC 1894,4 µg/mL
same,MIC Streptococcus pyogenes (GC 4563),Streptococcus sp.; strain GC 4563,16 µg/mL
same,MIC Streptococcus agalactiae (GC 4564),Streptococcus sp.; strain GC 4564,16 µg/mL
same,MIC Streptococcus pneumoniae (GC 4565),Streptococcus sp.; strain GC 4565,16 µg/mL
same,MIC Staphylococcus aureus (GC 1131),Staphylococcus sp.; inoculum 5×10^5 CFU/mL,32 µg/mL
same,MIC Staphylococcus aureus (ATCC 29213),Staphylococcus sp.,32 µg/mL
same,MIC Staphylococcus aureus (GC 1131),Staphylococcus sp.,32 µg/mL
same,MIC Staphylococcus aureus (GC 3051),Staphylococcus sp.,32 µg/mL
same,MIC Staphylococcus aureus (GC 3053),Staphylococcus sp.,32 µg/mL
same,MIC Staphylococcus aureus (GC 4541),Staphylococcus sp.,16 µg/mL
same,MIC Staphylococcus aureus (GC 4542),Staphylococcus sp.,32 µg/mL
same,MIC Staphylococcus aureus-SMITH (GC 4543),Staphylococcus sp.; strain GC 4543,16 µg/mL
same,MIC Staphylococcus aureus (GC 4544),Staphylococcus sp.,32 µg/mL
same,MIC Staphylococcus aureus (GC 4545),Staphylococcus sp.,32 µg/mL
same,MIC Staphylococcus haemolyticus (GC 4546),Staphylococcus sp.,16 µg/mL
same,MIC Coagulase Negative Staphylococcus (GC 4547),Staphylococcus sp.,16 µg/mL
same,MIC Coagulase Negative Staphylococcus (GC 4548),Staphylococcus sp.,8 µg/mL
same,MIC Coagulase Negative Staphylococcus (GC 4549),Staphylococcus sp.,8 µg/mL
same,MIC Coagulase Negative Staphylococcus (GC 4551),Staphylococcus sp.,16 µg/mL
same,MIC Coagulase Negative Staphylococcus (GC 6257),Staphylococcus sp.,8 µg/mL
same,MIC Staphylococcus aureus-SMITH (GC 4543),Staphylococcus sp.; strain SMITH GC 4543,16 µg/mL
same,MIC Escherichia coli (ATCC 25922),Escherichia coli,>64 µg/mL
same,MIC Escherichia coli (GC 4559),Escherichia coli,>64 µg/mL
same,MIC Escherichia coli (GC 4560),"Escherichia coli; strain GC 4560, 18 hours at 35° C.",8 µg/mL
COc1cc(C2OCC3OC(OC4C(CO)OC(Oc5ccc(CC6NC(=O)C(C(C)c7ccccc7)NC(=O)CNC(=O)C(CO)NC(=O)C(C(O)C7CNC(=N)N7C7OC(CO)C(O)C(O)C7O)NC(=O)C(C(O)C7CNC(=N)N7)NC6=O)cc5)C(O)C4O)C(O)C(O)C3O2)ccc1[N+](=O)[O-] (centres unmarked) [Example 153],MIC Enterococcus avium (GC 4558),Enterococcus sp.; Enterococcus avium (GC 4558),8 µg/mL
same,MIC Enterococcus faecalis (ATCC 29212),Enterococcus sp.; [1],8 µg/mL
same,MIC Enterococcus faecalis (GC 2242),Enterococcus sp.; [2],4 µg/mL
same,MIC Enterococcus faecalis (GC 2691),Enterococcus sp.; [3],8 µg/mL
same,MIC Enterococcus faecalis (GC 3059),Enterococcus sp.; [4],8 µg/mL
same,MIC Enterococcus faecalis (GC 4552),Enterococcus sp.; [5],8 µg/mL
same,MIC Enterococcus faecalis (GC 4553),Enterococcus sp.; [6],8 µg/mL
same,MIC Enterococcus faecalis (GC 4554),Enterococcus sp.; [7],8 µg/mL
same,MIC Enterococcus faecalis (GC 6189),Enterococcus sp.; [8],4 µg/mL
same,MIC Enterococcus faecium (GC 2243),Enterococcus sp.; Enterococcus faecium (GC 2243),4 µg/mL
same,MIC Enterococcus faecium (GC 4556),Enterococcus sp.; Enterococcus faecium (GC 4556),4 µg/mL
same,MIC Enterococcus faecium (GC 4557),Enterococcus sp.; Enterococcus faecium (GC 4557),2 µg/mL
same,MIC Enterococcus faecalis (ATCC 29212),Enterococcus sp.; strain ATCC 29212,8 µg/mL
same,MIC Enterococcus faecalis (GC 2242),Enterococcus sp.; strain GC 2242,4 µg/mL
same,MIC Enterococcus faecium (GC 2243),Enterococcus sp.; strain GC 2243,4 µg/mL
same,MIC Enterococcus faecalis (GC 2691),Enterococcus sp.; strain GC 2691,8 µg/mL
same,MIC Enterococcus faecalis (GC 3059),Enterococcus sp.; strain GC 3059,8 µg/mL
same,MIC Enterococcus faecalis (GC 4552),Enterococcus sp.; strain GC 4552,8 µg/mL
same,MIC Enterococcus faecalis (GC 4553),Enterococcus sp.; strain GC 4553,8 µg/mL
same,MIC Enterococcus faecalis (GC 4554),Enterococcus sp.; strain GC 4554,8 µg/mL
same,MIC Enterococcus faecium (GC 4556),Enterococcus sp.; strain GC 4556,4 µg/mL
same,MIC Enterococcus faecium (GC 4557),Enterococcus sp.; strain GC 4557,2 µg/mL
same,MIC Enterococcus avium (GC 4558),Enterococcus sp.; strain GC 4558,8 µg/mL
same,MIC Enterococcus faecalis (GC 6189),Enterococcus sp.; strain GC 6189,4 µg/mL
same,MIC Streptococcus agalactiae (GC 4564),Streptococcus sp.; [9],0.5 µg/mL
same,MIC Streptococcus pneumoniae (ATCC 6301),Streptococcus sp.; [10],<0.06 µg/mL
same,MIC Streptococcus pneumoniae (GC 1894),Streptococcus sp.; [11],<0.06 µg/mL
same,MIC Streptococcus pneumoniae (GC 4565),Streptococcus sp.; [12],<0.06 µg/mL
same,MIC Streptococcus pyogenes (GC 4563),Streptococcus sp.; [13],0.25 µg/mL
same,MIC Streptococcus pneumoniae (ATCC 6301),Streptococcus sp.; strain ATCC 6301,<0.06 µg/mL
same,MIC Streptococcus pneumoniae (GC 1894),Streptococcus sp.; strain GC 1894,<0.06 µg/mL
same,MIC Streptococcus pyogenes (GC 4563),Streptococcus sp.; strain GC 4563,0.25 µg/mL
same,MIC Streptococcus agalactiae (GC 4564),Streptococcus sp.; strain GC 4564,0.5 µg/mL
same,MIC Streptococcus pneumoniae (GC 4565),Streptococcus sp.; strain GC 4565,<0.06 µg/mL
same,MIC Staphylococcus aureus (GC 1131),Staphylococcus sp.; inoculum 5×10^5 CFU/mL,2 µg/mL
same,MIC Staphylococcus aureus (ATCC 29213),Staphylococcus sp.,2 µg/mL
same,MIC Staphylococcus aureus (GC 1131),Staphylococcus sp.,2 µg/mL
same,MIC Staphylococcus aureus (GC 3051),Staphylococcus sp.,2 µg/mL
same,MIC Staphylococcus aureus (GC 3053),Staphylococcus sp.,4 µg/mL
same,MIC Staphylococcus aureus (GC 4541),Staphylococcus sp.,2 µg/mL
same,MIC Staphylococcus aureus (GC 4542),Staphylococcus sp.,2 µg/mL
same,MIC Staphylococcus aureus-SMITH (GC 4543),Staphylococcus sp.; strain GC 4543,1 µg/mL
same,MIC Staphylococcus aureus (GC 4544),Staphylococcus sp.,2 µg/mL
same,MIC Staphylococcus aureus (GC 4545),Staphylococcus sp.,2 µg/mL
same,MIC Staphylococcus haemolyticus (GC 4546),Staphylococcus sp.,1 µg/mL
same,MIC Coagulase Negative Staphylococcus (GC 4547),Staphylococcus sp.,1 µg/mL
same,MIC Coagulase Negative Staphylococcus (GC 4548),Staphylococcus sp.,0.5 µg/mL
same,MIC Coagulase Negative Staphylococcus (GC 4549),Staphylococcus sp.,0.5 µg/mL
same,MIC Coagulase Negative Staphylococcus (GC 4551),Staphylococcus sp.,2 µg/mL
same,MIC Coagulase Negative Staphylococcus (GC 6257),Staphylococcus sp.,0.5 µg/mL
same,MIC Staphylococcus aureus-SMITH (GC 4543),Staphylococcus sp.; strain SMITH GC 4543,1 µg/mL
same,MIC Escherichia coli (ATCC 25922),Escherichia coli,64 µg/mL
same,MIC Escherichia coli (GC 4559),Escherichia coli,64 µg/mL
